Results published in ChEMBL document CHEMBL5614424, “Natural Product-Inspired Discovery of Naphthoquinone-Furo-Piperidine Derivatives as Novel STAT3 Inhibitors for the Treatment of Triple-Negative Breast Cancer” (J Med Chem, 2024).

Experiments:
MDA-MB-231 [1] = experiment: Antiproliferative activity against human MDA-MB-231 cells assessed as cell viability incubated for 48 hrs measured after additional incubation with MTT; format: functional, cell-based; conditions: MDA-MB-231, 48 h
MDA-MB-468 [2] = experiment: Antiproliferative activity against human MDA-MB-468 cells assessed as cell viability incubated for 48 hrs measured after additional incubation with MTT; format: functional, cell-based; conditions: MDA-MB-468, 48 h
[3] = Antiproliferative activity against human MCF-10A cells assessed as cell viability incubated for 48 hrs measured after additional incubation with MTT; format: toxicity, cell-based
L02 = experiment: Antiproliferative activity against human L02 cells assessed as cell viability incubated for 48 hrs measured after additional incubation with MTT; format: functional, cell-based; conditions: L02, 48 h
MDA-MB-231 [4] = experiment: Induction of apoptosis in human MDA-MB-231 cells assessed as early apoptotic cells at 2.5 uM measured after 24 hrs incubation by the annexin V/propidium iodide (PI) double staining assay (reference value: 2.46%); format: functional
MDA-MB-231 [5] = experiment: Induction of apoptosis in human MDA-MB-231 cells assessed as late apoptotic cells at 2.5 uM measured after 24 hrs incubation by the annexin V/propidium iodide (PI) double staining assay (reference value: 2.69%); format: functional
MDA-MB-231 [6] = experiment: Induction of apoptosis in human MDA-MB-231 cells assessed as early apoptotic cells at 5 uM measured after 24 hrs incubation by the annexin V/propidium iodide (PI) double staining assay (reference value: 2.46%); format: functional
MDA-MB-231 [7] = experiment: Induction of apoptosis in human MDA-MB-231 cells assessed as late apoptotic cells at 5 uM measured after 24 hrs incubation by the annexin V/propidium iodide (PI) double staining assay (reference value: 2.69%); format: functional
MDA-MB-468 [8] = experiment: Induction of apoptosis in human MDA-MB-468 cells assessed as early apoptotic cells at 2.5 uM measured after 24 hrs incubation by the annexin V/propidium iodide (PI) double staining assay (reference value: 3.98%); format: functional
MDA-MB-468 [9] = experiment: Induction of apoptosis in human MDA-MB-468 cells assessed as late apoptotic cells at 2.5 uM measured after 24 hrs incubation by the annexin V/propidium iodide (PI) double staining assay (reference value: 3.64%); format: functional
MDA-MB-468 [10] = experiment: Induction of apoptosis in human MDA-MB-468 cells assessed as early apoptotic cells at 5 uM measured after 24 hrs incubation by the annexin V/propidium iodide (PI) double staining assay (reference value: 3.98%); format: functional
MDA-MB-468 [11] = experiment: Induction of apoptosis in human MDA-MB-468 cells assessed as late apoptotic cells at 5 uM measured after 24 hrs incubation by the annexin V/propidium iodide (PI) double staining assay (reference value: 3.64%); format: functional
MDA-MB-231 [12] = experiment: Induction of apoptosis in human MDA-MB-231 cells assessed as early apoptotic cells at 5 uM measured after 24 hrs incubation by the annexin V/propidium iodide (PI) double staining assay (reference value: 2.37%); format: functional
MDA-MB-231 [13] = experiment: Induction of apoptosis in human MDA-MB-231 cells assessed as late apoptotic cells at 5 uM measured after 24 hrs incubation by the annexin V/propidium iodide (PI) double staining assay (reference value: 3.08%); format: functional
MDA-MB-231 [14] = experiment: Induction of apoptosis in human MDA-MB-231 cells assessed as early apoptotic cells pretreated with Z-VAD-FMK at 5 uM measured after 24 hrs incubation by the annexin V/propidium iodide (PI) double staining assay (reference value: 2.37%); format: functional
MDA-MB-231 [15] = experiment: Induction of apoptosis in human MDA-MB-231 cells assessed as late apoptotic cells pretreated with Z-VAD-FMK at 5 uM measured after 24 hrs incubation by the annexin V/propidium iodide (PI) double staining assay (reference value: 3.08%); format: functional
MDA-MB-468 [16] = experiment: Induction of apoptosis in human MDA-MB-468 cells assessed as early apoptotic cells at 5 uM measured after 24 hrs incubation by the annexin V/propidium iodide (PI) double staining assay (reference value: 2.36%); format: functional
MDA-MB-468 [17] = experiment: Induction of apoptosis in human MDA-MB-468 cells assessed as late apoptotic cells at 5 uM measured after 24 hrs incubation by the annexin V/propidium iodide (PI) double staining assay (reference value: 4.33%); format: functional
MDA-MB-468 [18] = experiment: Induction of apoptosis in human MDA-MB-468 cells assessed as early apoptotic cells pretreated with Z-VAD-FMK at 5 uM measured after 24 hrs incubation by the annexin V/propidium iodide (PI) double staining assay (reference value: 2.36%); format: functional
MDA-MB-468 [19] = experiment: Induction of apoptosis in human MDA-MB-468 cells assessed as late apoptotic cells pretreated with Z-VAD-FMK at 5 uM measured after 24 hrs incubation by the annexin V/propidium iodide (PI) double staining assay (reference value: 4.33%); format: functional
[20] = Half life in male rat at 10 mg/kg, po measured upto 24 hrs by LC/MS/MS analysis; format: ADME, organism-based; conditions: in vivo
[21] = Half life in male rat at 10 mg/kg, ip measured upto 24 hrs by LC/MS/MS analysis; format: ADME, organism-based; conditions: in vivo
[22] = Half life in male rat at 5 mg/kg, iv measured upto 24 hrs by LC/MS/MS analysis; format: ADME, organism-based; conditions: in vivo
[23] = AUC(0 to t) in male rat at 10 mg/kg, po measured upto 24 hrs by LC/MS/MS analysis; format: ADME, organism-based; conditions: in vivo
[24] = AUC(0 to t) in male rat at 10 mg/kg, ip measured upto 24 hrs by LC/MS/MS analysis; format: ADME, organism-based; conditions: in vivo
[25] = AUC(0 to t) in male rat at 5 mg/kg, iv measured upto 24 hrs by LC/MS/MS analysis; format: ADME, organism-based; conditions: in vivo
[26] = AUC(0 to infinity) in male rat at 10 mg/kg, po measured upto 24 hrs by LC/MS/MS analysis; format: ADME, organism-based; conditions: in vivo
[27] = AUC(0 to infinity) in male rat at 10 mg/kg, ip measured upto 24 hrs by LC/MS/MS analysis; format: ADME, organism-based; conditions: in vivo
[28] = AUC(0 to infinity) in male rat at 5 mg/kg, iv measured upto 24 hrs by LC/MS/MS analysis; format: ADME, organism-based; conditions: in vivo
[29] = Cmax in male rat at 10 mg/kg, po measured upto 24 hrs by LC/MS/MS analysis; format: ADME, organism-based; conditions: in vivo
[30] = Cmax in male rat at 10 mg/kg, ip measured upto 24 hrs by LC/MS/MS analysis; format: ADME, organism-based; conditions: in vivo
[31] = Cmax in male rat at 5 mg/kg, iv measured upto 24 hrs by LC/MS/MS analysis; format: ADME, organism-based; conditions: in vivo
[32] = Tmax in male rat at 10 mg/kg, po measured upto 24 hrs by LC/MS/MS analysis; format: ADME, organism-based; conditions: in vivo
[33] = Tmax in male rat at 10 mg/kg, ip measured upto 24 hrs by LC/MS/MS analysis; format: ADME, organism-based; conditions: in vivo
[34] = Tmax in male rat at 5 mg/kg, iv measured upto 24 hrs by LC/MS/MS analysis; format: ADME, organism-based; conditions: in vivo
[35] = Oral bioavailability in male rat at 10 mg/kg measured upto 24 hrs by LC/MS/MS analysis; format: ADME, organism-based; conditions: in vivo
MDA-MB-231 [36] = experiment: In vivo antitumor activity against human MDA-MB-231 cells assessed as tumor growth inhibition at 15 mg/kg, ip once daily for 21 consecutive days relative to control; format: functional; conditions: MDA-MB-231, 504 h, time 21 day, read-out: TGI
MDA-MB-231 [37] = experiment: In vivo antitumor activity against human MDA-MB-231 cells assessed as tumor growth inhibition at 30 mg/kg, ip once daily for 21 consecutive days relative to control; format: functional; conditions: MDA-MB-231, 504 h, time 21 day, read-out: TGI
[38] = Toxicity in female BALB/c-nude mouse assessed as histological change in heart at 15 to 30 mg/kg, ip once daily for 21 consecutive days by H and E staining based IHC analysis; format: organism-based; conditions: in vivo, 504 h, dose 15-30 mg/kg, time 21 day
[39] = Toxicity in female BALB/c-nude mouse assessed as histological change in liver at 15 to 30 mg/kg, ip once daily for 21 consecutive days by H and E staining based IHC analysis; format: organism-based; conditions: in vivo, 504 h, dose 15-30 mg/kg, time 21 day
[40] = Toxicity in female BALB/c-nude mouse assessed as histological change in spleen at 15 to 30 mg/kg, ip once daily for 21 consecutive days by H and E staining based IHC analysis; format: organism-based; conditions: in vivo, 504 h, dose 15-30 mg/kg, time 21 day
[41] = Toxicity in female BALB/c-nude mouse assessed as histological change in lung at 15 to 30 mg/kg, ip once daily for 21 consecutive days by H and E staining based IHC analysis; format: organism-based; conditions: in vivo, 504 h, dose 15-30 mg/kg, time 21 day
[42] = Toxicity in female BALB/c-nude mouse assessed as histological change in kidney at 15 to 30 mg/kg, ip once daily for 21 consecutive days by H and E staining based IHC analysis; format: organism-based; conditions: in vivo, 504 h, dose 15-30 mg/kg, time 21 day

Molecule `CC(C)C[C@@H](CO)N1CCc2c(oc3c2C(=O)C(=O)c2ccccc2-3)C1` has an IC50 (MDA-MB-231 [1]) of 2.05 µM, an IC50 (MDA-MB-468 [2]) of 7.54 µM and an IC50 at 48 h [3] of over 20 µM. For the same molecule, the IC50 (L02) was over 20 µM, the Activity (MDA-MB-231 [4]) was 3.35% and the Activity (MDA-MB-231 [5]) was 3.48%. It also gave an Activity (MDA-MB-231 [6]) of 5.86%, an Activity (MDA-MB-231 [7]) of 29.24% and an Activity (MDA-MB-468 [8]) of 3.86%. For the same molecule, the Activity (MDA-MB-468 [9]) was 4.6%, the Activity (MDA-MB-468 [10]) was 16.47% and the Activity (MDA-MB-468 [11]) was 19.37%. For the same molecule, the Activity (MDA-MB-231 [12]) was 3.97%, the Activity (MDA-MB-231 [13]) was 25.51% and the Activity (MDA-MB-231 [14]) was 4.68%. For the same molecule, the Activity (MDA-MB-231 [15]) was 13.57%, the Activity (MDA-MB-468 [16]) was 22.31% and the Activity (MDA-MB-468 [17]) was 17.13%. It also gave an Activity (MDA-MB-468 [18]) of 11.06%, an Activity (MDA-MB-468 [19]) of 15.38% and a half-life [20] of 7.1 h. For the same molecule, the half-life [21] was 7.9 h, the half-life [22] was 7.9 h and the AUC(0-t) at 24 h [23] was 55.1 ng·h/mL. The AUC(0-t) at 24 h [24] was 436 ng·h/mL, the AUC(0-t) at 24 h [25] was 536 ng·h/mL and the AUC(0-inf) [26] was 56.7 ng·h/mL. For the same molecule, the AUC(0-inf) [27] was 490 ng·h/mL, the AUC(0-inf) [28] was 618 ng·h/mL and the Cmax [29] was 67.8 ng/mL. It also gave a Cmax [30] of 232 ng/mL, a Cmax [31] of 348 ng/mL and a Tmax [32] of 0.2 h. It also gave a Tmax [33] of 6 min, a Tmax [34] of 4.2 min and a bioavailability [35] of 5.1%. The inhibition in vivo at 15 mg/kg (MDA-MB-231 [36]) was 42.2%, the inhibition in vivo at 30 mg/kg (MDA-MB-231 [37]) was 60.4% and the Activity [38] was “Non-Toxic”. The Activity [39] was “Non-Toxic”, the Activity [40] was “Non-Toxic” and the Activity [41] was “Non-Toxic”. The Activity [42] was “Non-Toxic”.
